ChEMBL document CHEMBL1932988, “Synthesis, antimicrobial, anticancer evaluation and QSAR studies of 6-methyl-4-[1-(2-substituted-phenylamino-acetyl)-1H-indol-3-yl]-2-oxo/thioxo-1,2,3,4-tetrahydropyrimidine-5-carboxylic acid ethyl esters” (Eur J Med Chem, 2012)
In brackets after ≈: the same amount, converted by molar mass.

Key:
Escherichia coli [1] = experiment: Antibacterial activity against Escherichia coli MTCC 1652 after 24 hrs by tube dilution method hrs followed by subculturing; type: functional
Aspergillus niger [2] = experiment: Ratio of MIC to MFC for Aspergillus niger MTCC 8189; type: functional
Aspergillus niger [3] = experiment: Antifungal activity against Aspergillus niger MTCC 8189 after 7 days by tube dilution method; type: functional
Bacillus subtilis [4] = experiment: Antibacterial activity against Bacillus subtilis MTCC 2063 after 24 hrs by tube dilution method hrs followed by subculturing; type: functional
Aspergillus niger [5] = experiment: Antifungal activity against Aspergillus niger MTCC 8189 after 7 days by tube dilution method hrs followed by subculturing; type: functional
Escherichia coli [6] = experiment: Antibacterial activity against Escherichia coli MTCC 1652 after 24 hrs by tube dilution method; type: functional
Staphylococcus aureus [7] = experiment: Antibacterial activity against Staphylococcus aureus MTCC 2901 after 24 hrs followed by subculturing; type: functional
Candida albicans [8] = experiment: Antifungal activity against Candida albicans MTCC 227 after 48 hrs by tube dilution method hrs followed by subculturing; type: functional
Staphylococcus aureus [9] = experiment: Ratio of MIC to MBC for Staphylococcus aureus MTCC 2901; type: functional
HCT-116 = experiment: cells; settings: Homo sapiens, HCT-116, 72 h
Escherichia coli [10] = experiment: Ratio of MIC to MBC for Escherichia coli MTCC 1652; type: functional
[11] = Partition coefficient, log P of the compound; type: physicochemical; settings: octanol/water
Candida albicans [12] = experiment: Ratio of MIC to MFC for Candida albicans MTCC 227; type: functional
MCF7 = experiment: cells; settings: Homo sapiens, MCF7, 72 h
Description: Cytotoxicity against human MCF7 cells after 72 hrs by MTT assay

Candida albicans [13] = experiment: Antifungal activity against Candida albicans MTCC 227 after 48 hrs by tube dilution method; type: functional
Bacillus subtilis [14] = experiment: Ratio of MIC to MBC for Bacillus subtilis MTCC 2063; type: functional
Staphylococcus aureus [15] = experiment: Antibacterial activity against Staphylococcus aureus MTCC 2901 after 24 hrs by tube dilution method; type: functional
Bacillus subtilis [16] = experiment: Antibacterial activity against Bacillus subtilis MTCC 2063 after 24 hrs by tube dilution method; type: functional

Row | Structure (SMILES) | MBC (Escherichia coli [1]) [uM/ml] | Ratio (Aspergillus niger [2]) | -logMIC (Aspergillus niger [3]) | MBC (Bacillus subtilis [4]) [uM/ml] | MFC (Aspergillus niger [5]) [uM/ml] | -logMIC (Escherichia coli [6]) | MBC (Staphylococcus aureus [7]) [uM/ml] | MFC (Candida albicans [8]) [uM/ml] | Ratio (Staphylococcus aureus [9]) | IC50 (HCT-116) [µg/mL] | Ratio (Escherichia coli [10]) | logP [11] | Ratio (Candida albicans [12]) | IC50 (MCF7) [µg/mL] | -logMIC (Candida albicans [13]) | Ratio (Bacillus subtilis [14]) | -logMIC (Staphylococcus aureus [15]) | -logMIC (Bacillus subtilis [16])
1 | CCOC(=O)C1=C(C)NC(=S)NC1c1cn(C(=O)CNc2ccccc2)c2ccccc12 (stereo not given) | >0.11 | 3 | 1.55 | >0.11 | >0.11 | 1.55 | >0.11 | >0.11 | 3 | 450 (≈ 1000 µM) | 3 | 2.92 | 3 | 52 (≈ 116 µM) | 1.55 | 3 | 1.55 | 1.25
2 | CCOC(=O)C1=C(C)NC(=S)NC1c1cn(C(=O)CNc2ccccc2Cl)c2ccccc12 (stereo not given) | >0.1 | 3 | 1.59 | >0.1 | >0.1 | 1.59 | >0.1 | >0.1 | 3 | – | 3 | 3.44 | 3 | – | 1.59 | 3 | 1.29 | 1.29
3 | CCOC(=O)C1=C(C)NC(=S)NC1c1cn(C(=O)CNc2ccc([N+](=O)[O-])c(Cl)c2)c2ccccc12 (stereo not given) | >0.09 | 3 | 1.63 | >0.09 | >0.09 | 1.63 | >0.09 | >0.09 | 3 | 29 (≈ 54.9 µM) | 3 | 3.4 | 3 | 50 (≈ 94.7 µM) | 1.63 | 3 | 1.63 | 1.32
4 | CCOC(=O)C1=C(C)NC(=O)NC1c1cn(C(=O)CNc2ccc([N+](=O)[O-])cc2Cl)c2ccccc12 (stereo not given) | >0.1 | 3 | 1.61 | >0.1 | >0.1 | 1.61 | >0.1 | >0.1 | 3 | 5 (≈ 9.77 µM) | 3 | 1.99 | 3 | 50 (≈ 97.7 µM) | 1.61 | 3 | 1.61 | 1.61
5 | CCOC(=O)C1=C(C)NC(=O)NC1c1cn(C(=O)CNc2ccc([N+](=O)[O-])cc2C)c2ccccc12 (stereo not given) | >0.1 | 3 | 1.59 | >0.1 | >0.1 | 1.59 | >0.1 | >0.1 | 3 | 600 (≈ 1220 µM) | 3 | 1.94 | 3 | 50 (≈ 102 µM) | 1.59 | 3 | 1.59 | 1.29
6 | CCOC(=O)C1=C(C)NC(=S)NC1c1cn(C(=O)CNc2ccc([N+](=O)[O-])cc2C)c2ccccc12 (stereo not given) | >0.1 | 3 | 1.61 | >0.1 | >0.1 | 1.61 | >0.1 | >0.1 | 3 | > 1000 | 3 | 3.34 | 3 | 48 (≈ 94.6 µM) | 1.61 | 3 | 1.61 | 1.61
7 | CCOC(=O)C1=C(C)NC(=O)NC1c1cn(C(=O)CNc2ccccc2[N+](=O)[O-])c2ccccc12 (stereo not given) | >0.1 | 3 | 1.58 | >0.1 | >0.1 | 1.58 | >0.1 | >0.1 | 3 | 250 (≈ 524 µM) | 3 | 1.48 | 3 | 40 (≈ 83.8 µM) | 1.58 | 3 | 1.58 | 1.58
8 | CCOC(=O)C1=C(C)NC(=S)NC1c1cn(C(=O)CNc2ccccc2[N+](=O)[O-])c2ccccc12 (stereo not given) | >0.1 | 3 | 1.6 | >0.1 | >0.1 | 1.6 | >0.1 | >0.1 | 3 | > 1000 | 3 | 2.88 | 3 | 550 (≈ 1110 µM) | 1.6 | 3 | 1.3 | 1.6
9 | CCOC(=O)C1=C(C)NC(=O)NC1c1cn(C(=O)CNc2cccc([N+](=O)[O-])c2)c2ccccc12 (stereo not given) | 0.1 | 3 | 1.58 | >0.1 | >0.1 | 1.88 | 0.1 | >0.1 | 3 | – | 3 | 1.48 | 3 | – | 1.58 | 3 | 1.88 | 1.58
10 | CCOC(=O)C1=C(C)NC(=O)NC1c1cn(C(=O)CNc2ccc([N+](=O)[O-])cc2)c2ccccc12 (stereo not given) | 0.1 | 3 | 1.58 | >0.1 | >0.1 | 1.88 | 0.1 | >0.1 | 3 | – | 3 | 1.48 | 3 | > 1000 | 1.58 | 3 | 1.88 | 1.58
11 | CCOC(=O)C1=C(C)NC(=S)NC1c1cn(C(=O)CNc2ccc(Cl)cc2)c2ccccc12 (stereo not given) | 0.05 | 3 | 1.59 | >0.1 | >0.1 | 2.19 | >0.1 | >0.1 | 3 | – | 3 | 3.44 | 3 | 80 (≈ 166 µM) | 1.59 | 3 | 1.59 | 1.59
12 | CCOC(=O)C1=C(C)NC(=O)NC1c1cn(C(=O)CNc2ccc(Cl)cc2)c2ccccc12 (stereo not given) | >0.11 | 3 | 1.57 | >0.11 | >0.11 | 1.27 | >0.11 | >0.11 | 3 | – | 3 | 2.04 | 3 | 200 (≈ 428 µM) | 1.57 | 3 | 1.57 | 1.27
13 | CCOC(=O)C1=C(C)NC(=S)NC1c1cn(C(=O)CNc2ccc([N+](=O)[O-])cc2)c2ccccc12 (stereo not given) | 0.03 | 3 | 1.6 | >0.1 | >0.1 | 2.5 | >0.1 | 0.1 | 3 | – | 3 | 2.88 | 3 | > 1000 | 1.9 | 3 | 1.6 | 1.6
14 | CCOC(=O)C1=C(C)NC(=S)NC1c1cn(C(=O)CNc2ccccc2N)c2ccccc12 (stereo not given) | 0.05 | 3 | 1.57 | >0.11 | 0.11 | 2.17 | 0.11 | >0.11 | 3 | – | 3 | 2.14 | 3 | 100 (≈ 216 µM) | 1.57 | 3 | 1.87 | 1.57
15 | OC(Cn1cncn1)(Cn1cncn1)c1ccc(F)cc1F [FLUCONAZOLE] | – | – | 2.64 | – | 0.04 | – | – | 0.04 | – | – | – | – | – | – | 2.64 | – | – | –
16 | O=c1[nH]cc(F)c(=O)[nH]1 [FLUOROURACIL] | – | – | – | – | – | – | – | – | – | 6 (≈ 46.1 µM) | – | – | – | 0.67 (≈ 5.15 µM) | – | – | – | –
17 | CCn1cc(C(=O)O)c(=O)c2cc(F)c(N3CCNCC3)cc21 [NORFLOXACIN] | 0.019 | – | – | 0.019 | – | 2.61 | 0.019 | – | – | – | – | – | – | – | – | – | 2.61 | 2.61
